Literature values as cited in publication PMC10177510, “A Multicenter, Open-Label, Phase I/II Study of FN-1501 in Patients with Advanced Solid Tumors” (Cancers, 2023).
Where two headings read alike, the source gives them in different places.

Details: preclinical, no reference given, cited from earlier work

CN1CCN(Cc2ccc(NC(=O)c3[nH]ncc3Nc3ncnc4[nH]ccc34)cc2)CC1 [FN-1501]
Css,u in mice (5 mg): roughly 5 ng/mL | Css,u in mice (20 mg): ~50 ng/mL
